For 22 compounds, logP results are on record in ChEMBL document CHEMBL1121958, “A consideration for structure-taste correlations of perillartines using pattern-recognition techniques” (J Med Chem, 1982).

A short description of this data set: Partition coefficient (logP). The class given is physicochemical. The settings on record: octanol/water.
The logP is a log measure of how a compound divides between an organic and an aqueous phase. The low end stands for a more hydrophilic compound, the high end for a more lipophilic compound. For `COC(C)C1=CCC(/C=N/O)=CC1` (configuration not stated), the logP was determined as 1.1.

The compound `COCC(C)(O)C1CC=C(/C=N/O)CC1` (configuration not stated) registered a logP of -0.1.

For the compound `O/N=C/C1=CCCCC1`, the lipophilicity (logP) was determined as 1.48.

`C/C=C(C)/C=N/O` gave a logP of 0.87.

In the case of `COCC1CC=C(/C=N/O)CC1` (configuration not stated), the logP was 1.1.

Compound `O/N=C/C1=CC=CCC1` displayed a logP of 1.48.

`COC(C)C1=CC=C(/C=N/O)CC1` (configuration not stated) showed a logP of 1.1.

Take `COCC(C)(OC)C1CC=C(/C=N/O)CC1` (configuration not stated): the logP is 0.72.

Take `COCC1CCC=C(/C=N/O)C1` (configuration not stated): the logP came out at 0.8.

In the case of `COCC1=CCC(/C=N/O)=CC1`, the logP was 0.8.

The compound `CC(O)(CO)C1CC=C(/C=N/O)CC1` (configuration not stated) yielded a logP of -0.92.

Turning to `COC(C)C1CCC=C(/C=N/O)C1` (configuration not stated), the logP is 1.4.

Compound `O/N=C/C1=CCOCC1` displayed a logP of -0.72.

On to `COC(C)C1CC=C(/C=N/O)CC1` (configuration not stated), for which the logP was determined as 1.4.

With `COC(C)C1=CCC=C(/C=N/O)C1` (configuration not stated), the logP is 1.1.

For the compound `C=C(C)C1CC=C(/C=N/O)CC1` (configuration not stated), the logP turned out to be 2.58.

The compound `C=CC1CC=C(/C=N/O)CC1` (configuration not stated) gave a log partition coefficient (logP) of 2.28.

With `COC(C)(CO)C1CC=C(/C=N/O)CC1` (configuration not stated), the logP is -0.1.

`O/N=C/C1=CCCOC1` returned a logP of -0.72.

Turning to `CC1=CC=C(/C=N/O)CC1`, the log partition coefficient (logP) was determined as 0.78.

In the case of `O/N=C/C1=CC2C=CC1CC2` (configuration not stated), the log partition coefficient (logP) turned out to be 1.9.

As to `O/N=C/C1=CCSCC1`, the log partition coefficient (logP) came to 0.34.
